US20220362282A1, “COMPOSITIONS AND METHODS FOR TREATING EYE DISEASES” (ADS THERAPEUTICS LLC, priority 2019, published 2022)
Values belong to the compound of their own block, whether it stands above or below them.

Experiments:
[1] = Screening of CDs and CD derivatives for ability to dissolve cholesterol in water (HPLC); type: physicochemical; conditions: for Concentrations of Cholesterol in CDs Solution: 5 days shaking at ambient; for Ability to dissolve cholesterol in water: CD 1, 10, 20% (w/v)
Experimental: Purpose: To determine the level of cholesterol that can be dissolved in water when 10 different CDs and their derivatives were added at three concentrations.
All CD solutions were prepared with starting 20% (w/v) solutions by accurately adding about 800 mg CDs in 4 milliliter water, 1% and 10% were diluted from this 20% solution to 2 mL for each sample preparation experiment.
Cholesterol was added accurately to all CD water solutions at about 40 mg/mL or about 80 mg per 2 mL. This amount of cholesterol was enough to fully saturate the CD solutions with white settlements or floating or both. All samples were conditioned at ambient by shaking using a rotator for 5 days.
After the equilibration with shaking for 5 days at ambient, the clear or semi-clear portion was filtered with 0.2 μm filter. 50 μL of the filtered solution was diluted with 450 μL methanol (10 X) for HPLC analysis. NOVAPAK phenyl column (7.6 cm by 3.9 mm I.D.) was used with a mobile phase of acetonitrile: water (70:30) at a flow rate of 0.5 ml/min and detection at UV at 210 nm.

pterygium patients = experiment: Safety (adverse events) of 10% HP-β-CD vehicle in the Phase 2 pterygium clinical trial; conditions: 10% as vehicle in the Phase 2 pterygium clinical trial
Experimental: The data was derived from the stage 2 of the Phase 2 clinical trial in pterygium patients who were topically administered 10% HP-β-CD as the vehicle of the testing article. The patients were treated for 4 weeks with three-time a day dosing and then followed up for another 20 weeks after the stop of treatment. The safety evaluation included the 20 weeks of non-treatment period.
All safety analyses were conducted on the safety population. MedDRA nomenclature was used to code adverse events. The number and percent of patients reporting adverse events were tabulated based on preferred terms and/or system organ class. Summary tables were generated for all adverse events regardless of causality as well as for treatment-related adverse events.

[2] = cited from earlier work; for Ability to form soluble complex with cholesterol in aqueous solution: 37° C., CDs 1.0 × 10^−2 M; for Increase in Absorbance (600 nm) Due to Cholesterol Dissolved by CDs: Aqueous solution at 37° C., concentration of CDs 1.0 × 10^−2 M
[3] = tested on: Patients with Primary or Recurrent Pterygium; experiment: Phase 2a clinical trial in pterygium patients: Pterygium Symptom and Life Quality (PSLQ) questionnaire scores; type: in vivo, human
Text: 2-HP-β-CD Formulation I was used as vehicle.
A trend of effects also remained after the stop of treatment at weeks 8, 16, and 24. The other questions didn't generate statistically significant effects.
These ocular symptoms are often observed in MGD patients. Scores of these symptoms were graded by patients as part of PSLQ questionnaires.

[4] = Baseline, Modified Intent-to-Treat Population, N = 23
[5] = Week 2, 10% (w/w) TID for 4 weeks, N = 23
[6] = Week 4, 10% (w/w) TID for 4 weeks, N = 23
[7] = Week 8 (after treatment period), N = 23
[8] = Week 16 (after treatment period), N = 23
[9] = Week 24 (after treatment period), N = 23

Concentrations of Cholesterol in CDs Solution ([1]; CD 1% (w/v) in water): 10 µg/mL
Ability to dissolve cholesterol in water [1]: substantial ability
Concentrations of Cholesterol in CDs Solution ([1]; CD 10% (w/v) in water): 820 µg/mL
Concentrations of Cholesterol in CDs Solution ([1]; CD 20% (w/v) in water): 2980 µg/mL
Compound: 2-Hydroxypropyl-beta-cyclodextrin [2-HP-β-CD]
Safety profile (pterygium patients): excellent safety profile
Ability to form soluble complex with cholesterol in aqueous solution [2]: only a weak ability
Increase in Absorbance (600 nm) Due to Cholesterol Dissolved by CDs [2]: 0.01
PSLQ scores compared to the baseline ([3]; 2-HP-β-CD-treated group, N = 23): significant improvements
Magnitude of reduction in PSLQ ocular symptom score, dry eye vs no dry eye patients ([3]; 10%, pterygium patients with vs without dry eye condition): statistically significant bigger
PSLQ Average Ocular Symptom Score, Mean (SD) [3, 4]: 0.88 (0.81)
PSLQ Average Quality of Life Impact Score, Mean (SD) [3, 4]: 0.57 (0.92)
PSLQ Average Vision-Related Functioning Score, Mean [3, 4]: 0.57
PSLQ Overall Average Score, Mean (SD) [3, 4]: 0.70 (0.66)
PSLQ Average Ocular Symptom Score, Change from Baseline, Mean (SD) [3, 5]: −0.36 (0.69)
PSLQ Average Quality of Life Impact Score, Change from Baseline, Mean (SD) [3, 5]: −0.19 (0.39)
PSLQ Average Vision-Related Functioning Score, Change from Baseline, Mean [3, 5]: −0.27
PSLQ Overall Average Score, Change from Baseline, Mean (SD) [3, 5]: −0.28 (0.45)
PSLQ Average Ocular Symptom Score, Change from Baseline, Mean (SD) [3, 6]: −0.46 (0.71)
PSLQ Average Quality of Life Impact Score, Change from Baseline, Mean (SD) [3, 6]: −0.19 (0.50)
PSLQ Average Vision-Related Functioning Score, Change from Baseline, Mean [3, 6]: −0.48
PSLQ Overall Average Score, Change from Baseline, Mean (SD) [3, 6]: −0.35 (0.51)
PSLQ Average Ocular Symptom Score, Change from Baseline, Mean (SD) [3, 7]: −0.39 (0.84)
PSLQ Average Quality of Life Impact Score, Change from Baseline, Mean (SD) [3, 7]: −0.17 (0.52)
PSLQ Average Vision-Related Functioning Score, Change from Baseline, Mean [3, 7]: −0.43
PSLQ Overall Average Score, Change from Baseline, Mean (SD) [3, 7]: −0.30 (0.55)
PSLQ Average Ocular Symptom Score, Change from Baseline, Mean (SD) [3, 8]: −0.29 (0.79)
PSLQ Average Quality of Life Impact Score, Change from Baseline, Mean (SD) [3, 8]: −0.13 (0.68)
PSLQ Average Vision-Related Functioning Score, Change from Baseline, Mean [3, 8]: −0.23
PSLQ Overall Average Score, Change from Baseline, Mean (SD) [3, 8]: −0.20 (0.64)
PSLQ Average Ocular Symptom Score, Change from Baseline, Mean (SD) [3, 9]: −0.33 (0.90)
PSLQ Average Quality of Life Impact Score, Change from Baseline, Mean (SD) [3, 9]: −0.15 (0.59)
PSLQ Average Vision-Related Functioning Score, Change from Baseline, Mean [3, 9]: −0.11
PSLQ Overall Average Score, Change from Baseline, Mean (SD) [3, 9]: −0.22 (0.73)

Compound: 2-hydroxypropyl-alpha-cyclodextrin [HP-ACD, reference compound]
Ability to dissolve cholesterol in water [1]: no detectable cholesterol dissolving activity

Ability to dissolve cholesterol in water [1]: extremely low levels
Concentrations of Cholesterol in CDs Solution ([1]; CD 10% (w/v) in water): 3 µg/mL
Concentrations of Cholesterol in CDs Solution ([1]; CD 20% (w/v) in water): 11 µg/mL
Compound: 2-hydroxypropyl-gamma-cyclodextrin [HP-GCD, reference compound]

Concentrations of Cholesterol in CDs Solution ([1]; CD 1% (w/v) in water): 30 µg/mL
Ability to dissolve cholesterol in water [1]: about half lower
Concentrations of Cholesterol in CDs Solution ([1]; CD 10% (w/v) in water): 2570 µg/mL
Concentrations of Cholesterol in CDs Solution ([1]; CD 20% (w/v) in water): 3380 µg/mL
Compound: OC[C@H]1O[C@H](O[C@H]2[C@H](O)[C@@H](O)[C@@H](OC[C@H]3O[C@@H]4O[C@H]5[C@H](O)[C@@H](O)[C@@H](O[C@H]6[C@H](O)[C@@H](O)[C@@H](O[C@H]7[C@H](O)[C@@H](O)[C@@H](O[C@H]8[C@H](O)[C@@H](O)[C@@H](O[C@H]9[C@H](O)[C@@H](O)[C@@H](O[C@H]%10[C@H](O)[C@@H](O)[C@@H](O[C@H]3[C@H](O)[C@H]4O)O[C@@H]%10CO)O[C@@H]9CO)O[C@@H]8CO)O[C@@H]7CO)O[C@@H]6CO)O[C@@H]5CO)O[C@@H]2CO)[C@H](O)[C@@H](O)[C@@H]1O [6-AM-BCD, 6-O-alpha-maltosyl-beta-cyclodextrin, reference compound]

Compound: OC[C@H]1O[C@@H]2O[C@H]3[C@H](O)[C@@H](O)[C@@H](O[C@H]4[C@H](O)[C@@H](O)[C@@H](O[C@H]5[C@H](O)[C@@H](O)[C@@H](O[C@H]6[C@H](O)[C@@H](O)[C@@H](O[C@H]7[C@H](O)[C@@H](O)[C@@H](O[C@H]1[C@H](O)[C@H]2O)O[C@@H]7CO)O[C@@H]6CO)O[C@@H]5CO)O[C@@H]4CO)O[C@@H]3CO [ACD, alpha-cyclodextrin]
Ability to form soluble complex with cholesterol in aqueous solution [2]: do not form soluble complexes
Increase in Absorbance (600 nm) Due to Cholesterol Dissolved by CDs [2]: 0

Compound: OC[C@H]1O[C@@H]2O[C@H]3[C@H](O)[C@@H](O)[C@@H](O[C@H]4[C@H](O)[C@@H](O)[C@@H](O[C@H]5[C@H](O)[C@@H](O)[C@@H](O[C@H]6[C@H](O)[C@@H](O)[C@@H](O[C@H]7[C@H](O)[C@@H](O)[C@@H](O[C@H]8[C@H](O)[C@@H](O)[C@@H](O[C@H]1[C@H](O)[C@H]2O)O[C@@H]8CO)O[C@@H]7CO)O[C@@H]6CO)O[C@@H]5CO)O[C@@H]4CO)O[C@@H]3CO [BCD, beta-cyclodextrin]
Ability to form soluble complex with cholesterol in aqueous solution [2]: do not form soluble complexes

Concentrations of Cholesterol in CDs Solution ([1]; CD 1% (w/v) in water): 190 µg/mL
Ability to dissolve cholesterol in water [1]: the best
Concentrations of Cholesterol in CDs Solution ([1]; CD 10% (w/v) in water): 5130 µg/mL
Concentrations of Cholesterol in CDs Solution ([1]; CD 20% (w/v) in water): 10430 µg/mL
Compound: COC[C@H]1O[C@@H]2O[C@H]3[C@H](O)[C@@H](OC)[C@@H](O[C@H]4[C@H](O)[C@@H](OC)[C@@H](O[C@H]5[C@H](O)[C@@H](OC)[C@@H](O[C@H]6[C@H](O)[C@@H](OC)[C@@H](O[C@H]7[C@H](O)[C@@H](OC)[C@@H](O[C@H]8[C@H](O)[C@@H](OC)[C@@H](O[C@H]1[C@H](O)[C@H]2OC)O[C@@H]8COC)O[C@@H]7COC)O[C@@H]6COC)O[C@@H]5COC)O[C@@H]4COC)O[C@@H]3COC [DM-BCD, heptakis (2,6-di-O-methyl)-beta-cyclodextrin]
Ability to form soluble complex with cholesterol in aqueous solution [2]: strong ability
Increase in Absorbance (600 nm) Due to Cholesterol Dissolved by CDs [2]: 0.336

Compound: OC[C@H]1O[C@@H]2O[C@H]3[C@H](O)[C@@H](O)[C@@H](O[C@H]4[C@H](O)[C@@H](O)[C@@H](O[C@H]5[C@H](O)[C@@H](O)[C@@H](O[C@H]6[C@H](O)[C@@H](O)[C@@H](O[C@H]7[C@H](O)[C@@H](O)[C@@H](O[C@H]8[C@H](O)[C@@H](O)[C@@H](O[C@H]9[C@H](O)[C@@H](O)[C@@H](O[C@H]1[C@H](O)[C@H]2O)O[C@@H]9CO)O[C@@H]8CO)O[C@@H]7CO)O[C@@H]6CO)O[C@@H]5CO)O[C@@H]4CO)O[C@@H]3CO [GCD, gamma-cyclodextrin]
Ability to form soluble complex with cholesterol in aqueous solution [2]: do not form soluble complexes
Increase in Absorbance (600 nm) Due to Cholesterol Dissolved by CDs [2]: 0

Compound: COC(=O)c1ccc2c(c1)NC(=O)/C2=C(\Nc1ccc(N(C)C(=O)CN2CCN(C)CC2)cc1)c1ccccc1 [Nintedanib, reference compound]
PSLQ ocular symptom score, Nintedanib 0.2% vs Vehicle ([3]; pterygium patients with dry eye condition): no statistically significant differences

Concentrations of Cholesterol in CDs Solution ([1]; CD 1% (w/v) in water): 150 µg/mL
Ability to dissolve cholesterol in water [1]: the best
Concentrations of Cholesterol in CDs Solution ([1]; CD 10% (w/v) in water): 6030 µg/mL
Concentrations of Cholesterol in CDs Solution ([1]; CD 20% (w/v) in water): 14200 µg/mL
Compound: random methyl-beta-cyclodextrin [M-BCD]

Concentrations of Cholesterol in CDs Solution ([1]; CD 1% (w/v) in water): 2 µg/mL
Concentrations of Cholesterol in CDs Solution ([1]; CD 10% (w/v) in water): 30 µg/mL
Concentrations of Cholesterol in CDs Solution ([1]; CD 20% (w/v) in water): 150 µg/mL
Compound: sulfobutylated beta-cyclodextrin [SBE-BCD]
